Test results: patent publication US20250171438A1 (Agios Pharmaceuticals, Inc., priority 2022, published 2025)

Target: T1, human PAH with the R408W mutation (Homo sapiens, UniProt P00439, R408W)
T1 construct: expressed in transfected cells
T1 sequence (P00439 1-452 R408W): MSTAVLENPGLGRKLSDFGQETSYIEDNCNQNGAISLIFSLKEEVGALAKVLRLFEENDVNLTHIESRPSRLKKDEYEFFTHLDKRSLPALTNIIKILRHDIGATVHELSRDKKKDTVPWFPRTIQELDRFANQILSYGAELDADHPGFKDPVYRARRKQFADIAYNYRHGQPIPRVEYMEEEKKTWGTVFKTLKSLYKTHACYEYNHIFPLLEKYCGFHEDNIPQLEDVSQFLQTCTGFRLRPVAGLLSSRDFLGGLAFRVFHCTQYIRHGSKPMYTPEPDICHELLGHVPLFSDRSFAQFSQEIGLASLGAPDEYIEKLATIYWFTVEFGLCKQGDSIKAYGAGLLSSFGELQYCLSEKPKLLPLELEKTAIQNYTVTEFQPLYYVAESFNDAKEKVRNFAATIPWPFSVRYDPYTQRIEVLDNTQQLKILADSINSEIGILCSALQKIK
Test: Cell Based Phenylalanine Flux Assay
Details: A375 cells expressing human R408W PAH; 24 hrs compound incubation; 13C-Tyrosine by LC-MS; average where tested multiple times; read-out: AC50

SMILES | AC50 [µM]
O=C(c1cnn(CC(F)F)c1Cl)N1CCc2[nH]cnc2[C@H]1c1nc2c(F)cccc2s1 [Example 2017, (S)-(5-chloro-1-(2,2-difluoroethyl)-1H-pyrazol-4-yl)(4-(4-fluorobenzo[d]thiazol-2-yl)-6,7-dihydro-1H-imidazo[4,5-c]pyridin-5(4H)-yl)methanone] | < 0.5
O=C(c1cnn(CC(F)F)c1Cl)N1CCc2[nH]cnc2[C@@H]1c1nc2c(F)cccc2s1 [Example 2018, (R)-(5-chloro-1-(2,2-difluoroethyl)-1H-pyrazol-4-yl)(4-(4-fluorobenzo[d]thiazol-2-yl)-6,7-dihydro-1H-imidazo[4,5-c]pyridin-5(4H)-yl)methanone] | 1 to 5
CN1CCN(c2nc(C(F)F)c(C(=O)N3CCc4[nH]cnc4[C@H]3c3nc4c(F)cccc4s3)o2)CC1 [Example 2023, (S)-(4-(difluoromethyl)-2-(4-methylpiperazin-1-yl)oxazol-5-yl)(4-(4-fluorobenzo[d]thiazol-2-yl)-6,7-dihydro-1H-imidazo[4,5-c]pyridin-5(4H)-yl)methanone] | < 0.5
CN1CCN(c2nc(C(F)F)c(C(=O)N3CCc4[nH]cnc4[C@@H]3c3nc4c(F)cccc4s3)o2)CC1 [Example 2024, (R)-(4-(difluoromethyl)-2-(4-methylpiperazin-1-yl)oxazol-5-yl)(4-(4-fluorobenzo[d]thiazol-2-yl)-6,7-dihydro-1H-imidazo[4,5-c]pyridin-5(4H)-yl)methanone] | 1 to 5
O=C(c1oc(N2CCOCC2)nc1C(F)F)N1CCc2[nH]cnc2[C@H]1c1nc2c(F)cccc2s1 [Example 2025, (S)-(4-(difluoromethyl)-2-morpholinooxazol-5-yl)(4-(4-fluorobenzo[d]thiazol-2-yl)-6,7-dihydro-1H-imidazo[4,5-c]pyridin-5(4H)-yl)methanone] | < 0.5
O=C(c1oc(N2CCOCC2)nc1C(F)F)N1CCc2[nH]cnc2[C@@H]1c1nc2c(F)cccc2s1 [Example 2026, (R)-(4-(difluoromethyl)-2-morpholinooxazol-5-yl)(4-(4-fluorobenzo[d]thiazol-2-yl)-6,7-dihydro-1H-imidazo[4,5-c]pyridin-5(4H)-yl)methanone] | 1 to 5
CC(C)(C#N)c1nc(C(F)F)c(C(=O)N2CCc3[nH]cnc3[C@H]2c2nc3c(F)cccc3s2)o1 [Example 2027] | < 0.5
CC(C)(C#N)c1nc(C(F)F)c(C(=O)N2CCc3[nH]cnc3[C@@H]2c2nc3c(F)cccc3s2)o1 [Example 2028, (R)-2-(4-(difluoromethyl)-5-(4-(4-fluorobenzo[d]thiazol-2-yl)-4,5,6,7-tetrahydro-1H-imidazo[4,5-c]pyridine-5-carbonyl)oxazol-2-yl)-2-methylpropanenitrile] | < 0.5
CN1CCN(c2nc(Br)c(C(=O)N3CCc4[nH]cnc4[C@H]3c3nc4c(F)cccc4s3)o2)CC1 [Example 2031, (S)-(4-bromo-2-(4-methylpiperazin-1-yl)oxazol-5-yl)(4-(4-fluorobenzo[d]thiazol-2-yl)-6,7-dihydro-1H-imidazo[4,5-c]pyridin-5(4H)-yl)methanone] | < 0.5
CN1CCN(c2nc(Br)c(C(=O)N3CCc4[nH]cnc4[C@@H]3c3nc4c(F)cccc4s3)o2)CC1 [Example 2032, (R)-(4-bromo-2-(4-methylpiperazin-1-yl)oxazol-5-yl)(4-(4-fluorobenzo[d]thiazol-2-yl)-6,7-dihydro-1H-imidazo[4,5-c]pyridin-5(4H)-yl)methanone] | 1 to 5
O=C(c1oc(N2CCOCC2)nc1Br)N1CCc2[nH]cnc2[C@H]1c1nc2c(F)cccc2s1 [Example 2033] | < 0.5
O=C(c1oc(N2CCOCC2)nc1Br)N1CCc2[nH]cnc2[C@@H]1c1nc2c(F)cccc2s1 [Example 2034, (R)-(4-bromo-2-morpholinooxazol-5-yl)(4-(4-fluorobenzo[d]thiazol-2-yl)-6,7-dihydro-1H-imidazo[4,5-c]pyridin-5(4H)-yl)methanone] | 1 to 5
O=C(c1cn[nH]c1Cl)N1CCc2[nH]cnc2[C@@H]1c1nc2ccccc2s1 [Example 2035, (R)-(4-(benzo[d]thiazol-2-yl)-6,7-dihydro-1H-imidazo[4,5-c]pyridin-5(4H)-yl)(5-chloro-1H-pyrazol-4-yl)methanone] | 1 to 5
O=C(c1cn[nH]c1Cl)N1CCc2[nH]cnc2[C@H]1c1nc2ccccc2s1 [Example 2036] | < 0.5
CC(C)n1ncnc1C(=O)N1CCc2[nH]cnc2[C@H]1c1nc2ccccc2s1 [Example 2037] | < 0.5
CC(C)n1ncnc1C(=O)N1CCc2[nH]cnc2[C@H]1c1nc2c(F)cccc2s1 [Example 2039, (S)-(4-(4-fluorobenzo[d]thiazol-2-yl)-6,7-dihydro-1H-imidazo[4,5-c]pyridin-5(4H)-yl)(1-isopropyl-1H-1,2,4-triazol-5-yl)methanone] | < 0.5
CC(C)n1ncnc1C(=O)N1CCc2[nH]cnc2[C@@H]1c1nc2c(F)cccc2s1 [Example 2040, (R)-(4-(4-fluorobenzo[d]thiazol-2-yl)-6,7-dihydro-1H-imidazo[4,5-c]pyridin-5(4H)-yl)(1-isopropyl-1H-1,2,4-triazol-5-yl)methanone] | 1 to 5
CCn1cnnc1C(=O)N1CCc2[nH]cnc2[C@@H]1c1nc2c(F)cccc2s1 [Example 2043, (R)-(4-ethyl-4H-1,2,4-triazol-3-yl)(4-(4-fluorobenzo[d]thiazol-2-yl)-6,7-dihydro-1H-imidazo[4,5-c]pyridin-5(4H)-yl)methanone] | 1 to 5

Next, values leading:

AC50 [µM] | SMILES
1 to 5 | CC(F)(F)c1ncoc1C(=O)N1CCc2[nH]cnc2[C@@H]1c1nc2c(F)cccc2s1 [Example 2008, (R)-(4-(1,1-difluoroethyl)oxazol-5-yl)(4-(4-fluorobenzo[d]thiazol-2-yl)-6,7-dihydro-1H-imidazo[4,5-c]pyridin-5(4H)-yl)methanone]
< 0.5 | Cc1cccc2sc([C@@H]3c4nc[nH]c4CCN3C(=O)c3ocnc3C(F)(F)F)nc12 [Example 2009, (S)-(4-(4-methylbenzo[d]thiazol-2-yl)-6,7-dihydro-1H-imidazo[4,5-c]pyridin-5(4H)-yl)(4-(trifluoromethyl)oxazol-5-yl)methanone]
0.5 to 1 | Cc1cccc2sc([C@H]3c4nc[nH]c4CCN3C(=O)c3ocnc3C(F)(F)F)nc12 [Example 2010, (R)-(4-(4-methylbenzo[d]thiazol-2-yl)-6,7-dihydro-1H-imidazo[4,5-c]pyridin-5(4H)-yl)(4-(trifluoromethyl)oxazol-5-yl)methanone]
< 0.5 | Cc1cccc2sc([C@@H]3c4nc[nH]c4CCN3C(=O)c3ocnc3C(F)F)nc12 [Example 2011]
1 to 5 | Cc1cccc2sc([C@H]3c4nc[nH]c4CCN3C(=O)c3ocnc3C(F)F)nc12 [Example 2012, (R)-(4-(difluoromethyl)oxazol-5-yl)(4-(4-methylbenzo[d]thiazol-2-yl)-6,7-dihydro-1H-imidazo[4,5-c]pyridin-5(4H)-yl)methanone]
0.5 to 1 | Cc1cccc2sc([C@@H]3c4nc[nH]c4CCN3C(=O)c3cnco3)nc12 [Example 2013, (S)-(4-(4-methylbenzo[d]thiazol-2-yl)-6,7-dihydro-1H-imidazo[4,5-c]pyridin-5(4H)-yl)(oxazol-5-yl)methanone]
> 5 | Cc1cccc2sc([C@H]3c4nc[nH]c4CCN3C(=O)c3cnco3)nc12 [Example 2014, (R)-(4-(4-methylbenzo[d]thiazol-2-yl)-6,7-dihydro-1H-imidazo[4,5-c]pyridin-5(4H)-yl)(oxazol-5-yl)methanone]
0.5 to 1 | Cc1cccc2sc([C@@H]3c4nc[nH]c4CCN3C(=O)c3ncnn3C)nc12 [Example 2015]
> 5 | Cc1cccc2sc([C@H]3c4nc[nH]c4CCN3C(=O)c3ncnn3C)nc12 [Example 2016, (R)-(1-methyl-1H-1,2,4-triazol-5-yl)(4-(4-methylbenzo[d]thiazol-2-yl)-6,7-dihydro-1H-imidazo[4,5-c]pyridin-5(4H)-yl)methanone]
< 0.5 | Cc1cccc2sc([C@@H]3c4nc[nH]c4CCN3C(=O)c3ocnc3C#N)nc12 [Example 2019, (S)-5-(4-(4-methylbenzo[d]thiazol-2-yl)-4,5,6,7-tetrahydro-1H-imidazo[4,5-c]pyridine-5-carbonyl)oxazole-4-carbonitrile]
> 5 | Cc1cccc2sc([C@H]3c4nc[nH]c4CCN3C(=O)c3ocnc3C#N)nc12 [Example 2020, (R)-5-(4-(4-methylbenzo[d]thiazol-2-yl)-4,5,6,7-tetrahydro-1H-imidazo[4,5-c]pyridine-5-carbonyl)oxazole-4-carbonitrile]
0.5 to 1 | Cc1cccc2sc([C@@H]3c4nc[nH]c4CCN3C(=O)c3ccnn3C)nc12 [Example 2021]
0.5 to 1 | Cc1cccc2sc([C@@H]3c4nc[nH]c4CCN3C(=O)c3cnn(C)c3C(F)F)nc12 [Example 2029, (S)-(5-(difluoromethyl)-1-methyl-1H-pyrazol-4-yl)(4-(4-methylbenzo[d]thiazol-2-yl)-6,7-dihydro-1H-imidazo[4,5-c]pyridin-5(4H)-yl)methanone]
< 0.5 | O=C(c1ocnc1CF)N1CCc2[nH]cnc2[C@H]1c1nc2c(F)cccc2s1 [Example 2041, (S)-(4-(4-fluorobenzo[d]thiazol-2-yl)-6,7-dihydro-1H-imidazo[4,5-c]pyridin-5(4H)-yl)(4-(fluoromethyl)oxazol-5-yl)methanone]
1 to 5 | O=C(c1ocnc1CF)N1CCc2[nH]cnc2[C@@H]1c1nc2c(F)cccc2s1 [Example 2042, (R)-(4-(4-fluorobenzo[d]thiazol-2-yl)-6,7-dihydro-1H-imidazo[4,5-c]pyridin-5(4H)-yl)(4-(fluoromethyl)oxazol-5-yl)methanone]
